{
  "source": "patent US12606795B2",
  "about": "(Thankcome Biological Science and Technology (SuZhou) Co., …, priority 2023, dated 2026)",
  "key": {"[1]": {"tested_on": "AOM/DSS-induced colorectal carcinoma mice", "test": "AOM/DSS-induced colorectal carcinoma mice", "assay_type": "in vivo, C57BL/6 mice", "details": "for colorectum weight/length (ratio): model group 4.34±0.35, normal 2.81±0.34", "procedure": "6-week-old SPF male C57BL/6 mice, purchased from the Chongqing Lepitt Biotechnology Co., Ltd. The mice were raised in a standardized laboratory with room temperature of 25° C.±2° C., relative humidity of 50%±5%, and 12 h of light/12 h of darkness. […] In experiments, mice were given free feeding and water. On the first day of experimental molding, the mice in the model group, the aspirin group, and the AKKP group were injected intraperitoneally with AOM at a dosage of 10 mg/kg, and were fed with 2.5% DSS aqueous solution at weeks 2, 5, and 8. The mice in the normal group and model group were intragastrically administrated with sterile saline; the mice in the aspirin group were intragastrically administrated with an aspirin solution at 67 mg/kg, and the mice in the AKKPL group and the AKKPH group were intragastrically administrated at dosages of 1×10^8 CFU/kg and 1×10^9 CFU/kg, respectively, for 10 consecutive weeks. In the experiments, diet, activity, vigor and hair conditions, and fecal properties of the mice in each group were observed. Each mouse was weighed per week and the body weights were recorded. After the experiments, blood was collected from eyeballs and the mice were sacrificed by removing their vertebrae. The mice were dissected to take out large intestine tissue, spleen tissue, liver tissue, and the kidney tissue for later testing.\nAfter the mice were dissected, the large intestine tissue, the spleen tissue, the liver tissue, and the kidney tissue were taken out and weighed. An organ Index was calculated using a formula, while the colorectum length of the mouse was measured and the colorectal tumorigenesis number of the mouse was recorded. Organ index=organ weight (mg)/mouse body weight (g).\nAfter being fixed in a tissue fixative for 24 h, the rectum of the mouse was transferred into 95% ethanol for dehydration, and then the dehydrated rectum was placed in xylene to replace alcohol in the tissue to make the rectum tissue transparent. Then, the treated rectum was embedded with paraffin. The embedded rectum was sectioned by a microtome, and then a tissue section was stained with H&E and fixed, obtaining a pathologic tissue section, with a thickness of 2 to 3 μm, of the rectum of the mouse, and the pathologic tissue section was observed under the upright microscope.\nWhole blood was collected from the eyeballs, and centrifuged at 4000 r/min and 4° C. for 10 min to separate supernatant serum. According to the instruction of the ELISA kit, the levels of IL-1β, IL-6, IFN-γ, iNOS and NF-κB in the serum of the mouse were determined.\nAbout 50 mg colon tissue was taken and cleaned with saline, and the cleaned colon tissue was placed in a homogenization tube containing 6 zirconia beads, and 500 μL TRIzol™ reagent was added to extract RNA in the tissue. The purity and concentration of RNA were determined using the micro-spectrophotometer. […] Then, after cDNA was generated by reverse transcription, a reaction system containing 1 μL cDNA was prepared. Other reagents include 10 μL qPCR SYBR Green Master Mix, […] sterile distilled water, 1 μL forward primer and 1 μL reverse primer. qRT-PCR amplification reaction conditions: 95° C., 10 s, 60° C., 30 s, 40 cycles; 95° C., 15 s, 60° C., 60 s, 95° C., 15 s. Taking Eef2 as an internal reference gene, the mRNA relative expression of each target gene was calculated according to formula 2^−ΔΔCt."}, "[2]": {"test": "Cell surface hydrophobicity (bacterial adherence to hydrocarbon, xylene)", "assay_type": "physicochemical", "details": "at 60 min", "procedure": "Based on the ability of bacteria to adhere to hydrocarbons, the cell surface hydrophobicity of strain AKK PROBIO was measured. A test of bacterial adherence to hydrocarbon (BATH) was conducted using xylene, and some modifications were made. Specifically, the strains were cultured overnight in a BHI medium at 37° C. Cells were collected by centrifugation (4° C.; 8000 rpm; 10 min), washed twice, and resuspended in a phosphate buffer (PBS, pH 7), and absorbance (OD600 nm) was adjusted to 0.5 to normalize bacteria number. Then, an equal volume of xylene was added and vortexed for 5 min to fully mix a two-phase system. After the incubation at room temperature for 15, 30, and 60 min, an aqueous phase was carefully removed, and its absorbance at 600 nm was measured using a spectrophotometer. The affinity (hydrophobicity) for the hydrocarbons was calculated using the following formula:\n[formula] • where P0 and P1 are absorbance values before and after extraction with the hydrocarbons, respectively."}, "[3]": {"tested_on": "APP/PS1 double transgenic mice", "test": "Alzheimer's disease in APP/PS1 double transgenic mice", "assay_type": "in vivo", "details": "1*10^9 CFU/mouse/d 30 d"}, "[4]": {"details": "qRT-PCR, aspirin 67 mg/kg or AKKPH 1×10^9 CFU/kg, vs model group, P<0.05"}, "[5]": {"details": "qRT-PCR, vs model group, P<0.05"}},
  "note": "Marks after values point to notes of the source that are not given here.",
  "data": [
    {"substance": "Akkermansia muciniphila [AKK PROBIO]", "values": [
      {"measurement": "colorectum weight/length (ratio)", "setting": "[1]; AKKPH 1×10^9 CFU/kg intragastric 10 weeks", "value": "2.97±0.18"},
      {"measurement": "colorectum weight/length (ratio)", "setting": "[1]; AKKPL 1×10^8 CFU/kg intragastric 10 weeks", "value": "3.18±0.31"},
      {"measurement": "body weight loss", "setting": "[1]; AOM/DSS mice, intragastric 10 weeks, aspirin 67 mg/kg, AKKP 1×10^8 and 1×10^9 CFU/kg", "value": "alleviate the body weight loss in the mice to a certain extent"},
      {"measurement": "content of IL-6 in serum", "setting": "[1]; ELISA, vs model group", "value": "reduced"},
      {"measurement": "content of IFN-γ in serum", "setting": "[1]; ELISA, vs model group, P<0.05", "value": "reduced"},
      {"measurement": "content of IL-1β in serum", "setting": "[1]; ELISA, vs model group, P<0.05", "value": "lower than that in the model group"},
      {"measurement": "content of NF-κB in serum", "setting": "[1]; ELISA, vs model group, P<0.05", "value": "reduced"},
      {"measurement": "content of iNOS in serum", "setting": "[1]; ELISA, vs model group, P<0.05", "value": "reduced"},
      {"measurement": "pathological morphology of rectum tissue (H&E)", "setting": "[1]; aspirin, AKKPL and AKKPH groups", "value": "no obvious erosion found in the rectal mucosa"},
      {"measurement": "kidney index / renal tissue", "setting": "[1]; between the five groups, P>0.05", "value": "no significant difference"},
      {"measurement": "mRNA relative expression of IκBβ in colon tissue", "setting": "[1]; [4]", "value": "significantly reduced"},
      {"measurement": "mRNA relative expression of p50 in colon tissue", "setting": "[1]; [4]", "value": "significantly reduced"},
      {"measurement": "mRNA relative expression of Bid in colon tissue", "setting": "[1]; [5]", "value": "significantly increased"},
      {"measurement": "mRNA relative expression of Bim in colon tissue", "setting": "[1]; [5]", "value": "significantly increased"},
      {"measurement": "mRNA relative expression of caspase-9 in colon tissue", "setting": "[1]; [5]", "value": "significantly increased"},
      {"measurement": "mRNA relative expression of p52 in colon tissue", "setting": "[1]; [5]", "value": "significantly reduced"},
      {"measurement": "mRNA relative expression of p65 in colon tissue", "setting": "[1]; [5]", "value": "significantly reduced"},
      {"measurement": "colorectal tumorigenesis number", "setting": "[1]; vs model group, P<0.05", "value": "significantly smaller"},
      {"measurement": "liver weight (liver index)", "setting": "[1]; vs model group, P<0.05", "value": "reduced"},
      {"measurement": "spleen weight (spleen index)", "setting": "[1]; vs model group, P<0.05", "value": "reduced"},
      {"measurement": "colorectum length", "setting": "[1]; vs model group, P<0.05, aspirin 67 mg/kg, AKKP 1×10^8 and 1×10^9 CFU/kg, 10 weeks", "value": "relatively long"},
      {"measurement": "hydrophobicity", "setting": "[2]", "value": "≥ 30", "unit": "%"},
      {"measurement": "Serum IL-4", "setting": "[3]; APP group 35.00, WT 106.52", "value": "70.42 ± 3.40^c"},
      {"measurement": "Serum CCL2", "setting": "[3]; APP group 80.13, WT 59.07", "value": "67.74 ± 1.51^b"},
      {"measurement": "Serum CXCL1", "setting": "[3]; APP group 168.91, WT 14.87", "value": "56.40 ± 2.88^b"},
      {"measurement": "Serum IL-10", "setting": "[3]; APP group 565.36, WT 2779.61", "value": "2133.04 ± 18947^b"}
    ]}
  ]
}
